Our source for the IC50 values is the Kinase Knowledgebase extract (Sharma et al. 2016).

The target of one assay is EGFR (UniProt P00533).
In assay [1] the target is EGFR (human) (UniProt P00533). Particulars: mcf-7.
Assay [2] has as its target EGFR (human) (UniProt P00533). To be noted: a431.
Assay [3] deals with EGFR (human) (UniProt P00533). Particulars: lox.
The target in assay [4] is EGFR (human) (UniProt P00533). To be noted: a2780ddp.
Assay [5] deals with EGFR (human) (UniProt P00533). To be noted: sw-620.
Assay [6] addresses EGFR (human) (UniProt P00533). To be noted: a2780s.
For assay [7], the target named is EGFR (human) (UniProt P00533). Particulars: mb435.
Assay [8] addresses EGFR (human) (UniProt P00533).
Assay [9] has as its target EGFR (human) (UniProt P00533). Particulars: skbr3.

Structures are written as SMILES. Values after ≈ are worked out from the molar mass of the structure shown.

Sequence of EGFR (P00533 whole entry, looked up): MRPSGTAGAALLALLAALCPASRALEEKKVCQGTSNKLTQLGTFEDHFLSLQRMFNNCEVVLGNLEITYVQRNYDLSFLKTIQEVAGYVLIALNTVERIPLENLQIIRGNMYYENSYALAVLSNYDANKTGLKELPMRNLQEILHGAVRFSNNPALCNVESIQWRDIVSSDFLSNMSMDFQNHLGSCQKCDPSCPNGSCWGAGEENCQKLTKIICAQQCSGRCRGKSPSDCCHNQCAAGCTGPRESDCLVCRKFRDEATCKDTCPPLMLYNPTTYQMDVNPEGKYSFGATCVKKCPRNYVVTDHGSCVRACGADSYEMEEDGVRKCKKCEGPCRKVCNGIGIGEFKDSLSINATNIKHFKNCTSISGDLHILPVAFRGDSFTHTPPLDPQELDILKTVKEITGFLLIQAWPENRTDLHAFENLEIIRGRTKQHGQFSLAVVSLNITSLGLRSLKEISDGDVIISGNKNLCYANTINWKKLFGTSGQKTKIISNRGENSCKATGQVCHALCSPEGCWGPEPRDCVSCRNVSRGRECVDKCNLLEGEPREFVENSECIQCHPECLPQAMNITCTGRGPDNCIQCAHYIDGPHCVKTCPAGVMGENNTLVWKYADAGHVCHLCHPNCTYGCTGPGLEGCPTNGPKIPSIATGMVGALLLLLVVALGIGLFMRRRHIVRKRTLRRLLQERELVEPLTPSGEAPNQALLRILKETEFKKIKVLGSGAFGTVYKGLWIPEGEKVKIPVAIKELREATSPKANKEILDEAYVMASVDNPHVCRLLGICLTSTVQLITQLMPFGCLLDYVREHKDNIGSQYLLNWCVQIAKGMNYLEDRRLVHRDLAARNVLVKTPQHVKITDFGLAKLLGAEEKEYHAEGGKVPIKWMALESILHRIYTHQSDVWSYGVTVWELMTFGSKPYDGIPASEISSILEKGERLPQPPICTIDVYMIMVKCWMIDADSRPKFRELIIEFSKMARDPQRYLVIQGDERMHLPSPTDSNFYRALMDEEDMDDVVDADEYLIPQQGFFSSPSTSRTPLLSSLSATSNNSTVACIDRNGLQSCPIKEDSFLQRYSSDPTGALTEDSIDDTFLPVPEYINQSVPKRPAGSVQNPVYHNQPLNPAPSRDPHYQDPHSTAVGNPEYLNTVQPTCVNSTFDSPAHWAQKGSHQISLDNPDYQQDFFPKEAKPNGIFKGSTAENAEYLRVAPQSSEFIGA
Sequence of EGFR (human) (P00533 whole entry, looked up): as above

The IC50 is the concentration at which inhibition is half-maximal. A higher IC50 goes with a need for much substance. Compound `O=C(/C=C/CBr)Nc1ccc2ncnc(Nc3cccc(Br)c3)c2c1` registered a half-inhibitory concentration (IC50) against EGFR of 0.01 nM.
For the compound `C=C(CN1CCOCC1)C(=O)Nc1ccc2ncnc(Nc3cccc(Br)c3)c2c1`, the half-maximal inhibitory concentration (IC50) came out at 17 µg/mL (≈ 36.3 µM) against EGFR (human) [1]; 0.005 nM at EGFR; 0.6 µg/mL (≈ 1.28 µM) against EGFR (human) [2]; 3.9 µg/mL (≈ 8.33 µM) at EGFR (human) [3]; 4 µg/mL (≈ 8.54 µM) against EGFR (human) [4]; 5.5 µg/mL (≈ 11.7 µM) against EGFR (human) [5]. Also, the IC50 was 0.8 µg/mL (≈ 1.71 µM) against EGFR (human) [6] and 4.5 µg/mL (≈ 9.61 µM) on EGFR (human) [7].
On EGFR (human) [8], `CSSC(C)C(=O)Nc1ccc2ncnc(Nc3cccc(Br)c3)c2c1` (centres undefined) came in with an IC50 of 0.84 nM.
For the compound `CCN(CC)C/C=C/C(=O)Nc1ccc2ncnc(Nc3cccc(Br)c3)c2c1`, the half-inhibitory concentration (IC50) was 59 µg/mL (≈ 130 µM) against EGFR (human) [1]; 0.075 nM against EGFR; 0.01 µg/mL (≈ 0.022 µM) against EGFR (human) [2]; 46 µg/mL (≈ 101 µM) on EGFR (human) [3]; 43 µg/mL (≈ 94.6 µM) against EGFR (human) [4]; 52 µg/mL (≈ 114 µM) on EGFR (human) [5]. Further, the figures for the IC50 on EGFR (human) [9], against EGFR (human) [6] and at EGFR (human) [7] were under 0.01 µg/mL, 22 µg/mL (≈ 48.4 µM) and 45 µg/mL (≈ 99 µM), respectively.
